Data taken from patent publication US20240158446A1, “CYCLIC COMPOUND HAVING SELECTIVE INHIBITORY ACTION ON KRAS OVER HRAS AND NRAS” (CHUGAI SEIYAKU KABUSHIKI KAISHA, priority 2021, published 2024).

Experiments:
[1] = target: GDP-bound KRAS wild-type protein (Homo sapiens, UniProt P01116); experiment: Binding to KRAS by surface plasmon resonance (SPR), Single Cycle Kinetics; conditions: SPR, Single Cycle Kinetics, GDP-bound KRAS wild-type protein; read-out: KRAS KD
[2] = target: GDP-bound HRAS wild-type protein (Homo sapiens, UniProt P01112); experiment: Binding to HRAS by surface plasmon resonance (SPR), Single Cycle Kinetics; conditions: SPR, GDP-bound HRAS wild-type protein vs GDP-bound KRAS wild-type protein
GDP-bound HRAS wild-type protein, sequence (P01112 whole entry): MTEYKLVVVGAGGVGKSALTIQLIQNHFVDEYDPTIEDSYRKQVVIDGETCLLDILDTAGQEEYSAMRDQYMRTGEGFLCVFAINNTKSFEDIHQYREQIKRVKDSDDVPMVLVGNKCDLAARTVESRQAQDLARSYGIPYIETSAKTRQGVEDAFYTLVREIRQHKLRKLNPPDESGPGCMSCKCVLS

[3] = target: GDP-bound NRAS wild-type protein (Homo sapiens, UniProt P01111); experiment: Binding to NRAS by surface plasmon resonance (SPR), Single Cycle Kinetics; conditions: SPR, GDP-bound NRAS wild-type protein vs GDP-bound KRAS wild-type protein
GDP-bound NRAS wild-type protein, sequence (P01111 whole entry): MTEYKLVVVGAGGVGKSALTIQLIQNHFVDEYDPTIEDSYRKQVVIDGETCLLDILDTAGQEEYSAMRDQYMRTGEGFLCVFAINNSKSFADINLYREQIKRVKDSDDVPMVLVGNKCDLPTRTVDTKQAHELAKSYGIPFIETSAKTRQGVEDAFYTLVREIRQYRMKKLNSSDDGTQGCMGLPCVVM

[4] = system: human lung cancer strain NCI-H441;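 note: cell proliferation inhibition after four days measured by CellTiter-Glo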

GDP-bound KRAS wild-type protein, sequence (P01116 whole entry): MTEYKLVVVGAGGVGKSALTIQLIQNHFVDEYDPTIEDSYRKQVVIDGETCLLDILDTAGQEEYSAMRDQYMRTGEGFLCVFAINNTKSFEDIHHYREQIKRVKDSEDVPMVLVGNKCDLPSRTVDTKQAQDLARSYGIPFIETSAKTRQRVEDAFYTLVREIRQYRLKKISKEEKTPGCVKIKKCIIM

For `CCO[C@@H]1C[C@H]2C(=O)NC3(CCC3)C(=O)N(C)[C@@H](C3CCCC3)C(=O)N(C)[C@H](C(=O)N(C)C)CC(=O)N(C)[C@@H](CC3CCCC3)C(=O)N[C@@H]([C@@H](C)CC)C(=O)N(C)CC(=O)N(C)[C@H]3C/C=C\CCN(C3=O)[C@@H](Cc3ccc(C(F)(F)F)cc3)C(=O)N(C)CC(=O)N[C@@H](CCc3cc(F)c(C(F)(F)F)c(F)c3)C(=O)N2C1` [PP1112, (2S,8S,12R,14S,20S,23S,27S,30S,36S,38Z)-20-cyclopentyl-27-(cyclopentylmethyl)-8-[2-[3,5-difluoro-4-(trifluoromethyl)phenyl]ethyl]-12-ethoxy-N,N,4,19,22,26,32,35-octamethyl-30-[(1S)-1-methylpropyl]-3,6,9,15,18,21,25,28,31,34,42-undecaoxo-2-[[4-(trifluoromethyl)phenyl]methyl]spiro[1,4,7,10,16,19,22,26,29,32,35-undecazatricyclo[34.5.1.0^10,14]dotetracont-38-ene-17,1′-cyclobutane]-23-carboxamide], the Kd [1] was 0.06 nM, the “HRAS/KRAS (ratio of KD value for HRAS to KD value for KRAS)” value [2] was “B (a compound having 3 or more and less than 10 is denoted as B)” and the “NRAS/KRAS (ratio of KD value for NRAS to KD value for KRAS)” value [3] was “A (a compound having 10 or more and less than 20 is denoted as A)”. For the same compound, the IC50 [4] was 10.4 nM.
With `CCO[C@@H]1C[C@H]2C(=O)NC3(CCC3)C(=O)N(C)[C@@H](C3CCCC3)C(=O)N(C)[C@H](C(=O)N(C)C)CC(=O)N(C)[C@@H](CC3CCC3)C(=O)N[C@@H]([C@@H](C)CC)C(=O)N(C)CC(=O)N(C)[C@H]3C/C=C\CCN(C3=O)[C@@H](Cc3ccc(C(F)(F)F)cc3)C(=O)N(C)CC(=O)N[C@@H](CCc3cc(F)c(C(F)(F)F)c(F)c3)C(=O)N2C1` [PP1118, (2S,8S,12R,14S,20S,23S,27S,30S,36S,38Z)-27-(cyclobutylmethyl)-20-cyclopentyl-8-[2-[3,5-difluoro-4-(trifluoromethyl)phenyl]ethyl]-12-ethoxy-N,N,4,19,22,26,32,35-octamethyl-30-[(1S)-1-methylpropyl]-3,6,9,15,18,21,25,28,31,34,42-undecaoxo-2-[[4-(trifluoromethyl)phenyl]methyl]spiro[1,4,7,10,16,19,22,26,29,32,35-undecazatricyclo[34.5.1.0^10,14]dotetracont-38-ene-17,1′-cyclobutane]-23-carboxamide] the Kd [1] was 0.056 nM, the “HRAS/KRAS (ratio of KD value for HRAS to KD value for KRAS)” value [2] was “B (a compound having 3 or more and less than 10 is denoted as B)” and the “NRAS/KRAS (ratio of KD value for NRAS to KD value for KRAS)” value [3] was “A (a compound having 10 or more and less than 20 is denoted as A)”. For the same compound, the IC50 [4] was 6.5 nM.
For `CC[C@H](C)[C@@H]1NC(=O)[C@H](CC)N(C)C(=O)C[C@@H](C(=O)N(C)C)N(C)C(=O)[C@H](C2CCCC2)N(C)C(=O)C2(CCC2)NC(=O)[C@@H]2CC(F)(F)CN2C(=O)[C@H](CCc2cc(F)c(C(F)(F)F)c(F)c2)NC(=O)CN(C)C(=O)[C@H](Cc2ccc(C(F)(F)F)cc2)N2CC/C=C\C[C@@H](C2=O)N(C)C(=O)CN(C)C1=O` [PP1129, (2S,8S,14S,20S,23S,27S,30S,36S,38Z)-20-cyclopentyl-8-[2-[3,5-difluoro-4-(trifluoromethyl)phenyl]ethyl]-27-ethyl-12,12-difluoro-N,N,4,19,22,26,32,35-octamethyl-30-[(1S)-1-methylpropyl]-3,6,9,15,18,21,25,28,31,34,42-undecaoxo-2-[[4-(trifluoromethyl)phenyl]methyl]spiro[1,4,7,10,16,19,22,26,29,32,35-undecazatricyclo[34.5.1.0^10,14]dotetracont-38-ene-17,1′-cyclobutane]-23-carboxamide], the Kd [1] was 0.056 nM, the “HRAS/KRAS (ratio of KD value for HRAS to KD value for KRAS)” value [2] was “B (a compound having 3 or more and less than 10 is denoted as B)” and the “NRAS/KRAS (ratio of KD value for NRAS to KD value for KRAS)” value [3] was “A (a compound having 10 or more and less than 20 is denoted as A)”. For the same compound, the IC50 [4] was 10.2 nM.
